Measured values as given in US20090306373A1, “4,7-DIHYDROTHIENO[2,3-B]PYRIDINE COMPOUNDS AND PHARMACEUTICAL COMPOSITIONS” (priority 2005, published 2009).

test system: alpha-MyHC; assay: alpha-MyHC cytoblot in neonatal rat ventricular myocytes (NRVM); assay type: cell-based; settings: Rattus norvegicus, Ventricular myocyte, Table 2, 72 hours, concentration giving 50% of maximum response
Method: In vitro activity of each compound is measured using the alpha-MyHC cytoblot process. Briefly, neonatal rat ventricular myocytes (NRVM) at 120,000 cells/ml in HyQ DME/High modified culture media supplemented with 10% charcoal/dextran treated FBS, 0.1% Nutridoma-SP, 1:100 MEM non-essential amino acids, 1:50 MEM amino acids solution w/o L-Gln, 1 mM sodium pyruvate and 1:100 P/S/G, are plated on gelatin coated sterile 384-well plates (Costar 3712) at 6,000 cells per well. Cells are incubated overnight at 37° C. in 5% CO2 100% humidity. Following overnight growth the media is changed to HyQ DME/High modified culture media supplemented with 0.3% Nutridoma-SP, 1:100 MEM non-essential amino acids, 1:50 MEM amino acids solution w/o L-Gln, 1 mM sodium pyruvate and 1:100 P/S/G. Cells are then dosed with serial dilutions of each compound in DMSO. Each concentration in the dose range is dosed in quadruplicate. Dosing is done in such a way so that the final DMSO concentration was 0.44%. Compound dilutions are 3-fold with the final top concentration of 10 uM. […] Following dosing, the cells are incubated for 72 hours at 37° C. in 5% CO2 100% humidity and then processed with the cytoblot method. Briefly, cell media is aspirated and cell monolayers washed with PBS and fixed with 100% methanol for 30 minutes. Fixed cells are then blocked with PBS, 0.05% Tween-20, 1% BSA, for 1 hour. Following blocking, cells are incubated with primary alpha-MyHC-specific antibody (1:30 dilution of BA-G5 hybridoma conditioned media, ATCC HB276) for 1 hour. Following incubation with the primary antibody, cells are washed with PBS, 0.05% Tween-20, 1% BSA and incubated with secondary antibody (1:1000 dilution, goat-anti-mouse HRP, Southern Biotech, 1031-05) for 1 hour. Following incubation with the secondary antibody, wells are washed and incubated in SuperSignal, West Dura HRP-luminescence substrate for 30 seconds under shaking at room temperature. Luminescence is measured using a Packard Fusion plate reader. […] RLU values are converted into percent fraction of low control and dose responses are fitted to a sigmoidal 4-parameter equation (XLFit, IDBS) where the EC50 and Max Plateau values were extracted. […] Max Plateau is the […] maximum value determined by the dose response fit.

SMILES	EC50 [nM]
CCOC(=O)C1=C(CC)Nc2sc(C(=O)c3cccnc3)c(N)c2C1c1ccncc1F (centres unmarked) [Compound 174, 3-amino-6-ethyl-4-(3 fluoro-pyridin-4-yl)-2-(pyridine-3-carbonyl)-4,7 dihydro-thieno[2,3-b]pyridine-5-carboxylic acid ethyl ester]	21.9

same assay, conditions: Table 1, 72 hours, concentration giving 50% of maximum response

SMILES	EC50 [nM]
CCC(=O)C1=C(CC)Nc2sc(C(=O)c3ccc(Cl)c(Cl)c3)c(N)c2C1c1ccccc1F (racemic) [Compound 39, 1-[3-amino-2-(3,4-dichloro-benzoyl)-6-ethyl-4-(2-fluoro-phenyl)-4,7-dihydro-thieno[2,3b]pyridin-5-yl]-propan-1-one]	17.1

same assay, conditions: Table 1, 72 hours, fitted maximum, percent fraction of low control (vehicle), in %

SMILES	Max Plateau
CCCC(=O)C1=C(CCC)Nc2sc(C(=O)c3ccc(F)c(F)c3)c(N)c2C1c1ccccc1 (centres unmarked) [Compound 95]	147.01 ± 6.43
CCC(=O)C1=C(CC)Nc2sc(C(=O)c3cc(C(C)(C)C)c(O)c(C(C)(C)C)c3)c(N)c2C1c1ccccc1 (centres unmarked) [Compound 90]	300.00 ± 0.00
CCC(=O)C1=C(CC)Nc2sc(C(=O)c3ccccc3)c(N)c2C1c1cccnc1 (centres unmarked) [Compound 68]	175.88 ± 14.54
CCC(=O)C1=C(CC)Nc2sc(C(=O)c3ccc(F)c(F)c3)c(N)c2C1c1cc(F)cc(F)c1 (centres unmarked) [Compound 101]	230.49 ± 17.13
CC(=O)C1=C(C)Nc2sc(C(=O)c3ccccc3)c(N)c2C1C1CCCCC1 (centres unmarked) [Compound 26]	185.33 ± 55.04
CC(=O)C1=C(C)Nc2sc(C(=O)c3ccc(Cl)c(Cl)c3)c(N)c2C1c1ccccc1F (centres unmarked) [Compound 27]	220.13 ± 23.10
COC(=O)c1cccc(C(=O)c2sc3c(c2N)C(c2ccccc2)C(C(C)=O)=C(C)N3)c1 (centres unmarked) [Compound 62]	279.31 ± 67.94
CC(=O)C1=C(C)Nc2sc(C(=O)c3ccc(Cl)c(Cl)c3)c(N)c2C1c1ccc(Cl)c(Cl)c1 (centres unmarked) [Compound 47]	173.47 ± 25.64
CC(C)C(=O)C1=C(C(C)C)Nc2sc(C(=O)c3ccc(Cl)c(Cl)c3)c(N)c2C1c1ccccc1 (centres unmarked) [Compound 46]	98.33 ± 4.08
CC(=O)C1=C(C)Nc2sc(C(=O)c3ccc(Cl)c(Cl)c3)c(N)c2C1c1cccs1 (centres unmarked) [Compound 41]	178.47 ± 7.82
CCC(=O)C1=C(CC)Nc2sc(C(=O)c3ccc(Cl)c(Cl)c3)c(N)c2C1c1ccccc1C (centres unmarked) [Compound 56]	293.74 ± 50.82
CCC(=O)C1=C(CC)Nc2sc(C(=O)c3ccc(Cl)c(Cl)c3)c(N)c2C1c1c(F)cccc1F (centres unmarked) [Compound 63]	230.07 ± 45.59
CC(=O)C1=C(C)Nc2sc(C(=O)c3ccc(Cl)c(Cl)c3)c(N)c2C1c1ccc(F)cc1 (centres unmarked) [Compound 50]	190.79 ± 27.94
CC(=O)C1=C(C)Nc2sc(C(=O)c3ccc(Cl)c(Cl)c3)c(N)c2C1c1ccccc1 (centres unmarked) [Compound 2]	207.74 ± 23.00
CCC(=O)C1=C(CC)Nc2sc(C(=O)c3cccnc3)c(N)c2C1c1ccnc(F)c1 (centres unmarked) [Compound 103]	254.65 ± 31.26
CC(=O)C1=C(C)Nc2sc(C(=O)c3ccc(Cl)c(Cl)c3)c(N)c2C1c1ccc(Br)cc1 (centres unmarked) [Compound 22]	174.35 ± 23.39
CCC(=O)C1=C(CC)Nc2sc(C(=O)c3ccccc3)c(N)c2C1c1ccccc1F (centres unmarked) [Compound 78]	269.77 ± 35.30
CCC(=O)C1=C(CC)Nc2sc(C(=O)c3ccc(Cl)c(Cl)c3)c(N)c2C1c1cccc(F)c1 (centres unmarked) [Compound 84]	242.72 ± 19.34
CCC(=O)C1=C(CC)Nc2sc(C(=O)c3ccc(Cl)c(Cl)c3)c(N)c2C1c1ccnc(F)c1 (centres unmarked) [Compound 98]	255.02 ± 32.01
CC(=O)C1=C(C)Nc2sc(C(=O)c3ccccc3)c(N)c2C1c1ccccc1 (centres unmarked) [Compound 3]	250.88 ± 32.62
CCC(=O)C1=C(CC)Nc2sc(C(=O)c3ccc(Cl)c(C)c3)c(N)c2C1c1ccccc1 (centres unmarked) [Compound 89]	230.09 ± 19.81
CC(=O)C1=C(C)Nc2sc(C(=O)c3cccc(C(=O)O)c3)c(N)c2C1c1ccccc1 (centres unmarked) [Compound 65]	100.00 ± 0.00
CCC(=O)C1=C(CC)Nc2sc(C(=O)c3ccc(Cl)c(Cl)c3)c(N)c2C1c1ccccc1F (racemic) [Compound 39, 1-[3-amino-2-(3,4-dichloro-benzoyl)-6-ethyl-4-(2-fluoro-phenyl)-4,7-dihydro-thieno[2,3b]pyridin-5-yl]-propan-1-one]	272.61 ± 37.32
COc1ccc(C2C(C(C)=O)=C(C)Nc3sc(C(=O)c4ccccc4)c(N)c32)cc1 (centres unmarked) [Compound 14]	182.73 ± 26.95
COc1cccc(C2C(C(C)=O)=C(C)Nc3sc(C(=O)c4ccccc4)c(N)c32)c1 (centres unmarked) [Compound 15]	126.50 ± 24.27

same assay, conditions: Table 2, 72 hours, fitted maximum, percent fraction of low control (vehicle), in %

SMILES	Max Plateau
CCOC(=O)C1=C(C)Nc2sc(C(=O)c3ccc(Cl)c(Cl)c3)c(N)c2C1c1ccccc1 (centres unmarked) [Compound 113]	256.38
COC(=O)C1=C(C(C)(C)C)Nc2sc(C(=O)c3ccc(Cl)c(Cl)c3)c(N)c2C1c1ccccc1 (centres unmarked) [Compound 131]	158.97
CCC1=C(C(=O)OC2CCCCC2)C(c2ccccc2)c2c(sc(C(=O)c3ccc(Cl)c(Cl)c3)c2N)N1 (centres unmarked) [Compound 160]	186.95
CCOC(=O)C1=C(CC)Nc2sc(C(=O)c3ccc(F)c(CC(=O)OC)c3)c(N)c2C1c1ccccc1 (racemic) [Compound 194]	188.67
CCC1=C(C(=O)OC(C)CC)C(c2ccccc2F)c2c(sc(C(=O)c3ccc(Cl)c(Cl)c3)c2N)N1 (single isomer, unassigned) [Compound 163]	224.85
CCC1=C(C(=O)OC)C(c2ccccc2F)c2c(sc(C(=O)c3ccc(Cl)c(C)c3)c2N)N1 (centres unmarked) [Compound 150]	228.28
CCOC(=O)C1=C(CC)Nc2sc(C(=O)c3ccc(Cl)c(Cl)c3)c(N)c2C1c1ccccc1F (centres unmarked) [Compound 142]	194.32
CCC1=C(C(=O)OC)C(c2cccc(Cl)c2F)c2c(sc(C(=O)c3ccc(Cl)c(Cl)c3)c2N)N1 (centres unmarked) [Compound 155]	224.86
CCC1=C(C(=O)OC)C(c2ccccc2F)c2c(sc(C(=O)c3cccc([N+](=O)[O-])c3)c2N)N1 (centres unmarked) [Compound 140]	266.63
CCOC(=O)C1=C(CC)Nc2sc(C(=O)c3cc(C(F)(F)F)cc(C(F)(F)F)c3)c(N)c2C1c1ccccc1 (centres unmarked) [Compound 149]	207.18
CCOC(=O)C1=C(CC)Nc2sc(C(=O)c3ccc(F)c(F)c3)c(N)c2C1c1ccncc1F (centres unmarked) [Compound 173]	257.43
COC(=O)C1=C(C2CC2)Nc2sc(C(=O)c3ccc(Cl)c(Cl)c3)c(N)c2C1c1ccccc1 (centres unmarked) [Compound 133]	180.24
CCC1=C(C(=O)OC)C(c2c(F)cccc2F)c2c(sc(C(=O)c3ccc(Cl)c(Cl)c3)c2N)N1 (centres unmarked) [Compound 137]	213.90
COC(=O)C1=C(C(C)C)Nc2sc(C(=O)c3cccc(C#N)c3)c(N)c2C1c1ccccc1F (racemic) [Compound 177]	162.75
COCCOC(=O)C1=C(C)Nc2sc(C(=O)c3ccc(Cl)c(Cl)c3)c(N)c2C1c1ccccc1 (centres unmarked) [Compound 119]	234.93
CCC1=C(C(=O)OCC(C)C)C(c2ccccc2)c2c(sc(C(=O)c3ccc(Cl)c(Cl)c3)c2N)N1 (centres unmarked) [Compound 161]	232.35
COC(=O)C1=C(C(C)C)Nc2sc(C(=O)c3ccc(Cl)c(Cl)c3)c(N)c2C1c1ccccc1 (centres unmarked) [Compound 116]	107.57

same assay, conditions: Table 3, 72 hours, fitted maximum, percent fraction of low control (vehicle), in %

SMILES	Max Plateau
CCCCNC(=O)C1=C(C)Nc2sc(C(=O)c3ccc(Cl)c(Cl)c3)c(N)c2C1c1ccccc1 (racemic) [Compound 196]	121.93 ± 25.12

same assay, conditions: Table 4, 72 hours, concentration giving 50% of maximum response

SMILES	EC50 [nM]
CCOC(=O)C1=C(C)Nc2sc(C(=O)c3cccc(Br)c3)c(N)c2C1(C)c1ccccc1 (centres unmarked) [Compound 197]	792

same assay, conditions: Table 4, 72 hours, fitted maximum, percent fraction of low control (vehicle), in %

SMILES	Max Plateau
CCOC(=O)C1=C(C)Nc2sc(C(=O)c3cccc(Br)c3)c(N)c2C1(C)c1ccccc1 (centres unmarked) [Compound 197]	159.55 ± 10.94
